This note sets out measurements from patent US20250026723A1, “Cannabinoid Receptor Modulating Compounds” (THE UNITED STATES OF AMERICA, as represented by the …, priority 2021, published 2025).

Series [1] concerns the target cannabinoid receptor 1 (CB1R) (Homo sapiens (Human), UniProt P21554). Nature of the series: CB1R binding affinity (inhibition constant Ki).
The test system of a further series is Caco-2. The experiment in a line: Caco-2 permeability assay. Conditions: Caco-2, assay conc 10 μM. A general note: Caco-2 cells form a polarised layer with tight junctions and transporters.
The target of series [2] is T1, CB1 (Homo sapiens (Human), UniProt P21554). Nature of the series: CB1 antagonism assay, red (cAMP) NOMAD biosensor, MPXNomad-CB1 HEK293 cells. The format is cell-based. The procedure:
(§1) CB1 antagonism assays were conducted on red (cAMP) and green ([…]) NOMAD biosensors using MPXNomad-CB1 HEK293 cells using commercial kits and protocols provided by Innoprot (Derio, Spain).
Target sequence in this assay (P21554 whole entry): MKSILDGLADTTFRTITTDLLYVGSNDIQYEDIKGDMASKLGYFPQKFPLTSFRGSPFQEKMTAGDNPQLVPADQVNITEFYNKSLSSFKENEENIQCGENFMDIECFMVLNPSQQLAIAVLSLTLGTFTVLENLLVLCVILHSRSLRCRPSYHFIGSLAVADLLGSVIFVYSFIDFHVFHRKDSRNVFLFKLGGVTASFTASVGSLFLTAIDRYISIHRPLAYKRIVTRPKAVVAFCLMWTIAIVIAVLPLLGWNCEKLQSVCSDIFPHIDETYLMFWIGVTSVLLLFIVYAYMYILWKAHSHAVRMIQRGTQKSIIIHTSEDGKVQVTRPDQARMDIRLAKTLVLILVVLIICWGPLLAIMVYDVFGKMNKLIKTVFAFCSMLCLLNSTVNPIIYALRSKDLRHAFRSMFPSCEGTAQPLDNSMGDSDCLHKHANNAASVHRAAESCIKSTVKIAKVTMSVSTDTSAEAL

In series [3] the target is T1, CB1. The experiment in a line: CB1 antagonism assay, green (β-Arrestin) NOMAD biosensor, MPXNomad-CB1 HEK293 cells. The format is cell-based. As to the method: as §1
Target sequence in this assay (P21554 whole entry): as above
A short description of series [4]: Caco-2 permeability assay. To be noted: human, Caco-2.
The next series in a line: in vitro. Conditions: human, Caco-2.
The target of series [5] is T1, CB1. The experiment in a line: Cannabinoid receptor modulator activity (Table 3, in words).
Target sequence in this assay (P21554 whole entry, species assumed): as the sequence (P21554 whole entry) above

Like-named read-outs stand apart in the source and are kept apart here.

Broadly, the Ki is the equilibrium dissociation constant of an inhibitor or competing ligand from its target. Regarding `COCCSC(=NS(=O)(=O)c1ccc(C(F)(F)F)cc1)N1CC(c2ccccc2)C(c2ccc(Cl)cc2)=N1` (stereo not shown) [Compound 1], the Ki in series [1] (read-out: CB1R Ki) stood at 6.9 nM.

What is called IC50 is the concentration at which inhibition is half-maximal. As for `N#CCCCSC(=NS(=O)(=O)c1ccc(C(F)(F)F)cc1)N1CC(c2ccccc2)C(c2ccc(Cl)cc2)=N1` (stereo not shown) [Compound 2], in the series with Caco-2, the “Mean (B-A/A-B) Efflux Ratio” value stood at 2.09, the “Mean Papp A-B” value is on record as 0.00561 10^−6 cm/s and the “Mean Papp B-A” value is recorded as 0.0118 10^−6 cm/s. For the same molecule, at CB1 [2] (MPXNomad-CB1 HEK293 cells, CB1 antagonism, read-out: cAMP IC50), the IC50 stood at 2490 nM. Further, in series [1] (read-out: CB1R Ki), the Ki is 3.4 nM. The IC50 on CB1 [3] (MPXNomad-CB1 HEK293 cells, CB1 antagonism, read-out: β-Arrestin IC50) turned out to be 1800 nM.

One may read the efflux ratio as a quotient of directional permeabilities that is used to spot active efflux. One may read the Papp A→B as the apparent permeability from the apical to the basolateral side of a cell layer. Low values mean poor permeation, high ones ready permeation. What is called Papp B→A is how fast a substance crosses the layer from the basolateral side. `COC(=O)[C@@H](C)CS/C(=N\S(=O)(=O)c1ccc(C(F)(F)F)cc1)N1CC(c2ccccc2)C(c2ccc(Cl)cc2)=N1` (stereo partly shown) [Compound 3A]: in series [4], the efflux ratio at 10 μM stood at 1.26. In addition, the results for the IC50 against CB1 [2] and at CB1 [3] were 0.61 nM and 0.04 nM, respectively. The Papp A→B at 10 μM in “in vitro” stood at 0.0096 ×10⁻⁶ cm/s. Also, the Papp B→A at 10 μM in “in vitro” was found to be 0.0121 ×10⁻⁶ cm/s. The molecule further displayed a Ki in series [1] of 7.7 nM.

Regarding `O=C(CCS/C(=N\S(=O)(=O)c1ccc(C(F)(F)F)cc1)N1CC(c2ccccc2)C(c2ccc(Cl)cc2)=N1)NO` (stereo not shown) [Compound 3B], the “Activity at CB1 (in words)” value on CB1 [5] is reported as “antagonist, potential”.

As for `NC(=O)CSC(=NS(=O)(=O)c1ccc(C(F)(F)F)cc1)N1CC(c2ccccc2)C(c2ccc(Cl)cc2)=N1` (stereo not shown) [Compound 3], the Ki in series [1] (read-out: CB1R Ki) amounted to 21.2 nM.

As for `C[Se]C(=NS(=O)(=O)c1ccc(C(F)(F)F)cc1)N1CC(c2ccccc2)C(c2ccc(Cl)cc2)=N1` (stereo not shown) [Compound 12], the Ki in series [1] (read-out: CB1R Ki) was determined as 3.3 nM.

Turning to `CSC(=NS(=O)(=O)c1ccc(C(F)(F)F)cc1)N1CC(c2ccccc2)C(c2ccc(Cl)cc2)=N1` (stereo not shown) [Compound 19], the inhibition constant (Ki) in series [1] (read-out: CB1R Ki) turned out to be 16.6 nM.

For `NC(=O)C[Se]C(=NS(=O)(=O)c1ccc(C(F)(F)F)cc1)N1CC(c2ccccc2)C(c2ccc(Cl)cc2)=N1` (stereo not shown) [Compound 20], in the series on Caco-2, the “Mean (B-A/A-B) Efflux Ratio” value is given as 0.25, the “Mean Papp A-B” value was 0.183 10^−6 cm/s and the “Mean Papp B-A” value was 0.0451 10^−6 cm/s. The Ki in series [1] (read-out: CB1R Ki) came to 14.4 nM.

As for `COC(=O)C(C)C[Se]C(=NS(=O)(=O)c1ccc(Cl)cc1)N1CC(c2ccccc2)C(c2ccc(Cl)cc2)=N1` (stereo not shown) [Compound 23], the Ki in series [1] (read-out: CB1R Ki) is 12.1 nM.
